{"source": "patent US5858995A", "about": "“Benzofuran derivatives useful as inhibitors of bone resorption” (Fujisawa Pharmaceutical Co., Ltd., priority 1994, dated 1999)", "tested_on": "PTH-induced bone resorption (calvariae)", "assay": "Bone organ culture: inhibition of PTH-induced bone resorption in rat calvariae", "type": "cell-based", "settings": "Compound dose = 1 × 10^-5 (M); calvariae from Wistar rats, 10^-8 M human PTH (1-34); calcium in medium after six days", "description": "Test (Bone organ culture)\nCalvariae from Wistar rats were excised and cultured in wells of 12-well culture plates containing 2 ml of Dulbecco's modified minimum essential medium supplemented with 10% fetal bovine serum and 10^-8 M human parathyroid hormone fragment (1-34) [PTH] in the presence of the test compound. In control dishes, PTH was not added. Control and PTH control were exposed to an equivalent concentration of the vehicle. Six days later, the concentration of calcium in the medium was measured by methylxylenol blue method and the percentage of inhibition of PTH-induced bone resorption was calculated according to following formula. [formula] Test Result"}
{"compound": "Cc1oc2c(NC(=O)c3c(Cl)cccc3Cl)cccc2c1C", "note": "[Test Compound (1), 7-(2,6-Dichlorobenzoylamino)-2,3-dimethylbenzo[b]furan]", "values": [{"measurement": "Inhibition (%) of PTH-induced bone resorption", "value": 100, "unit": "%"}]}
